Measurements taken from patent US20250171433A1, “A1H-BENZO[C][1,2]THIADIAZINE-2,2-DIOXIDES BEARING HETEROCYCLIC LINKERS AS SELECTIVE HISTONE DEACETYLASE 6 INHIBITORS” (Georgetown University, priority 2022, published 2025).
Read-outs that look alike come from different tables or passages of the source.

Legend:
[1] = Reported functional activity
other HDAC subtypes = assay: Inhibition of other HDAC subtypes at a single concentration; assay type: biochemical, human
Description: (§1) The HDAC1, 2, 4, 5, 6, 7, 8, 9, 10, and 11 assays used isolated recombinant human protein; HDAC3/NcoR2 complex was used for the HDAC3 assay. Substrate for HDAC1, 2, 3, 6, 10, and 11 assays is a fluorogenic peptide from p53 residues 379-382 (RHKKAc); substrate for HDAC8 is fluorogenic diacyl peptide based on residues 379-382 of p53 (RHKAcKAc). Acetyl-Lys(trifluoroacetyl)-AMC substrate was used for HDAC4, 5, 7, and 9 assays. Compounds were dissolved in DMSO and tested in 10-dose IC50 mode with 3-fold serial dilution starting at 30 μM. Control compound trichostatin A (TSA) was tested in a 10-dose IC50 mode with 3-fold serial dilution starting at 5 μM. IC50 values were extracted by curve-fitting the dose/response slopes. Assays were performed in duplicate, and IC50 values are an average of data from both experiments.

Kinetic solubility = assay type: physicochemical
[2] = Chemical stability at pH 7.4 and 2; assay type: physicochemical
Mice iv PK = settings: mouse, in vivo
[3] = Oral PK study with brain and sciatic nerve exposure; assay type: in vivo, mice
HDAC1 = target: T1, HDAC1 (Homo sapiens, UniProt Q13547); assay: HDAC enzyme activity inhibition assay, HDAC1; assay type: biochemical; settings: DRC
T1 construct: host or cells: baculovirus / Sf9 cells
Description: (§2) The effectiveness, or potency, of a present HDAC6I with respect to inhibiting the activity of an HDAC is measured by an IC50 value. The quantitative IC50 value indicates the concentration of a particular compound that is needed to inhibit the activity of an enzyme by 50% in vitro. Stated alternatively, the IC50 value is the half maximal (50%) inhibitory concentration of a compound tested using a specific enzyme, e.g., HDAC, of interest.
as §1, with “Control compound trichostatin A (TSA) was tested in a 10-dose IC50 mode with 3-fold serial dilution starting at 5 μM. IC50 values were extracted by curve-fitting the dose/response slopes. Assays were performed in duplicate, and IC50 values are an average of data from both experiments.” left out
(§3) All IC50 values are automatically calculated using the GraphPad Prism version 5 and Equation of Sigmoidal dose-response (variable slope): […]
(§4) HDAC Activity Assays: HDAC assay is performed using fluorescently-labeled acetylated substrate, which comprises an acetylated lysine side chain. […] HDACs 1 and 6 were expressed as full length fusion proteins. […]

hHDAC6 = target: T2, hHDAC6 (Homo sapiens, UniProt Q9UBN7); assay: HDAC enzyme activity inhibition assay, HDAC6; assay type: biochemical; settings: duplicate, performed by DRC; read-out: potency at hHDAC6
T2 construct: host or cells: baculovirus / Sf9 cells
T2 sequence (Q9UBN7 1-1215): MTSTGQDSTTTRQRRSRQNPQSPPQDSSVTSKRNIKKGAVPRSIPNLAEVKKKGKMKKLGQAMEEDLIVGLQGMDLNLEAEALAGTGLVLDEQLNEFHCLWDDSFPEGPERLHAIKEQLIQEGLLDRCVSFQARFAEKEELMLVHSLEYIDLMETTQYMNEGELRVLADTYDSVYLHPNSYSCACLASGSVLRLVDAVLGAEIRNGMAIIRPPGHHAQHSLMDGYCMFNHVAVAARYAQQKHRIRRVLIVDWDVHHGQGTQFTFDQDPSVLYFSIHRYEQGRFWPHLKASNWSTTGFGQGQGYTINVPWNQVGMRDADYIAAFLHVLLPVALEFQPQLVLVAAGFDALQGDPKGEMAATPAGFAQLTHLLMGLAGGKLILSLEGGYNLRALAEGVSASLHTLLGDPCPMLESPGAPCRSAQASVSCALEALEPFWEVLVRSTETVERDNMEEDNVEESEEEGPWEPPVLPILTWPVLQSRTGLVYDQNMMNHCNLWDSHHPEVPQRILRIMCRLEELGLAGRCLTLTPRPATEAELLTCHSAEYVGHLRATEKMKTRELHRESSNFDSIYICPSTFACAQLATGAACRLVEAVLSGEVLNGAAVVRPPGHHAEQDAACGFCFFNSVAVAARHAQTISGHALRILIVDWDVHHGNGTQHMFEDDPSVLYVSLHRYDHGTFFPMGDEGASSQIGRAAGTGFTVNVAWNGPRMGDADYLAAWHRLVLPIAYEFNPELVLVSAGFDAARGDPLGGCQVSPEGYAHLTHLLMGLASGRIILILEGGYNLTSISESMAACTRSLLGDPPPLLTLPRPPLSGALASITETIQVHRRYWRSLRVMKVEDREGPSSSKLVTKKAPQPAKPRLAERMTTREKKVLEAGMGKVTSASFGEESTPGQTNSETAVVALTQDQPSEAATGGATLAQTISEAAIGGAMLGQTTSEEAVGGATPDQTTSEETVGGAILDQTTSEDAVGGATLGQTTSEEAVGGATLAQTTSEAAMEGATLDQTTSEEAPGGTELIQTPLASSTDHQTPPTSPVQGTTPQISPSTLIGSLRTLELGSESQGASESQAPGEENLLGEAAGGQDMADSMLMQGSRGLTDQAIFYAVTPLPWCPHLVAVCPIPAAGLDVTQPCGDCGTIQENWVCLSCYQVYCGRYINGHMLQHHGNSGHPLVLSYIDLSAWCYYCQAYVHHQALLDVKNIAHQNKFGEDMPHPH
Description: as §2
as §1, with “Control compound trichostatin A (TSA) was tested in a 10-dose IC50 mode with 3-fold serial dilution starting at 5 μM. IC50 values were extracted by curve-fitting the dose/response slopes. Assays were performed in duplicate, and IC50 values are an average of data from both experiments.” left out
as §3, §4

[4] = Clearance in mouse microsomes; assay type: in vitro ADME
Permeability and efflux = assay type: in vitro ADME
[5] = Free fraction in human plasma; assay type: in vitro ADME
[6] = Clearance in human microsomes; assay type: in vitro ADME
[7] = Free fraction in mouse plasma; assay type: in vitro ADME
[8] = mouse, plasma, oral PK study, gavage

T1 sequence (Q13547 whole entry): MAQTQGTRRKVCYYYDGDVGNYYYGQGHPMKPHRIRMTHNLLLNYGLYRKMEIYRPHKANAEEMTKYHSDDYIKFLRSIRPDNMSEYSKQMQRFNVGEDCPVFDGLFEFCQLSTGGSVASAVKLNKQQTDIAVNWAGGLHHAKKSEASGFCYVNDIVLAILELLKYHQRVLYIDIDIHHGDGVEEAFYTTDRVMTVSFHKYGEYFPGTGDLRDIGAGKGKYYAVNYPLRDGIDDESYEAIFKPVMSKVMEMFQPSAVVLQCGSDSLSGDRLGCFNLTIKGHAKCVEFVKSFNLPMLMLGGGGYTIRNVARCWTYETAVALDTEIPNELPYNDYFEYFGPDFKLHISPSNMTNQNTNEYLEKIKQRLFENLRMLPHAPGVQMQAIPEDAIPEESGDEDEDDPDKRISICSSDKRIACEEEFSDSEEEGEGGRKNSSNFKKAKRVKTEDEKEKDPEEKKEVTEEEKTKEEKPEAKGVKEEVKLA

O=S1(=O)CCc2ccccc2N1Cc1ccc(-c2nnc(C(F)F)o2)cn1 [Compound 1, 1-[[5-[5-(Difluoromethyl)-1,3,4-axadiazol-2-yl)pyridin-2-yl]methyl]-3,4-dihydro-1H-benzo[c][1,2]thiazine-2,2-dioxide]
reported functional activity [1]: 0.76 µM | % inh. at 10 μM versus other HDAC subtypes (other HDAC subtypes): < 20% | kinetic solubility (Kinetic solubility): high | chemical stability at pH 2 ([2]; pH 2): chemically stable | chemical stability at pH 7.4 ([2]; pH 7.4): chemically stable | clearance (Mice iv PK): 44.9 mL/min/kg | Kp at 1 h ([3]; mouse, brain and plasma, oral, @1 h, read-out: Brain/Plasma ratio): 0.8 | Kp at 4 h ([3]; mouse, brain and plasma, oral, @4 h, read-out: Brain/Plasma ratio): 1.2 | concentrations detected in the brain and the sciatic nerve ([3]; mouse, in vivo): moderate | bioavailability ([3]; mouse, plasma, oral PK study): 14.7% | half-life ([3]; mouse, plasma, oral PK study): 2.2 h | Cmax [3, 8]: 456 ng/mL | Tmax [3, 8]: 0.25 h | MRT ([3]; mouse, plasma, oral PK study, read-out: mean residence time): 3.14 h | Kp at 1 h ([3]; mouse, sciatic nerve and plasma, oral, at 1 h, read-out: Sciatic nerve/plasma ratio): 0.4 | clearance ([3]; oral PK study): medium | volume of distribution ([3]; oral PK study): medium | selectivity against HDAC1 (HDAC1): full selectivity | IC50 (hHDAC6): 0.029 µM | clearance in mouse microsomes [4]: higher | microsomal CLint ([4]; mouse, compared with set criteria in Schedule B, species not given): > 50 µL/min/mg | efflux (Permeability and efflux): low | permeability (Permeability and efflux): high | free fraction in human plasma [5]: high | clearance in human microsomes [6]: low | free fraction in mouse plasma [7]: high
